Data published in patent publication US11759438B2, “Compositions and methods for treating ocular pathologies” (priority 2017, dated 2023).
Read-outs that look alike come from different tables or passages of the source.

Columns and labels:
[1] = tested on: Herpes Simplex Virus type 1 (HSV-1) RE strain; assay: Herpes stromal keratitis model, C57bl/6 mice, topical eye drops; type: in vivo
[2] = tested on: Herpes Simplex Virus type 1 (HSV-1) RE strain; assay: Herpes stromal keratitis model, BALB/c mice, topical eye drops, clinical scoring and histology; type: in vivo; details: for animal body weight: HSV-1 infected mice, relative to BSS controls; for HSV-induced pathological vascularization of the eye: mouse models of herpetic keratitis, ophthalmic formulation
Protocol: DOI drops were topically applied for 7 days post infection and chronic disease was assessed up to day 15.
There is a complete absence of inflammatory or red blood cells and no vascularization of corneal tissue. 2nd row panels: HSV infection and long-term inflammatory responses induces disruption of the epithelial layer, thickening of the stroma, and identifiable vascularization of corneal tissue (yellow arrows) with extensive presence of immune infiltrates.
16 BALB/c mice were randomly sorted into 3 treatment arms: 1) Ophthalmic Balanced Saline Solution diluted 1:1 in PBS (BSS+PBS) treated (6 mice); 2) DOI treated (XTPFDOI) (5 mice); 3) 1.0% TFT (TFT+PBS) (5 mice). Animals were anesthetized with […]:ketamine and both eyes were scarified in a cross hatch pattern using a curved needle. Immediately following ocular scarification, eyes were inoculated with a 3 microliter drop containing 10,000 plaque forming units (PFU) of Herpes Simplex Virus type 1 (HSV-1) RE strain. The next morning following infection, animals were treated with the respective treatment as assigned within their treatment arm. Treatments were applied topically to the eye in a 4 microliter drop. Drops were applied 4 time per day from 9:00 am to 5:30 pm, starting immediately following clinical scoring. Treatments were applied for the first 8 days post infection and then stopped. Clinical scoring was done using a slit lamp biomicroscope magnified at 16× on the days indicated by a single individual masked to the drug treatment parameters. Slit lamp biomicroscopy also included fluorescein exclusion labeling of the corneal surface following scoring of all clinical parameters. Each eye was scored independently. Animal deaths were recorded if euthanasia was required due to severe encephalitis or if animals died from HSV-associated disease. Clinically clear eyes were scored as such if no apparent signs of disease were present in any clinical parameter during the chronic phase.
At day 15 post infection, a stage that would be during chronic immune-associated disease with no virus present, animals were euthanized and the eyes were removed for histology. Random representative eyes were prepared by taking sections through the central cornea and processed by H&E histology for visualization. Sections were examined microscopically and photographed across the central cornea.

HSV-1 = tested on: HSV-1; set-up: species or system mice; details: 500 nM; for HSV-1 reactivation from latency (in words): ex vivo TG explants
[3] = tested on: human microvascular endothelial cells (HMEC) spheroids; assay: Spheroid tubule growth assay; type: cell-based; details: matrigel with VEGF; serotonin 50 nM, R-DOI 100 nM, TCB2 500 nM
Protocol: FIG. 16 is a series of fluorescent micrographs showing the effect of 5HT2A receptor agonists on vascular tubule growth from tissue-like spheroids.
HMEC cells were cultured in specially coated U-shaped bottom 96 well plates in order to form tissue-like three-dimension spheroids. Spheroids were subsequently implanted into wells that contained matrigel basement membranes supplemented with vascular endothelial growth factor (VEGF) or starved (Starvation control-no VEGF). Culture media was treated with either serotonin (50 nM), (R-DOI (100 nM), or TCB2 (500 nM) outgrowth from the spheroids of vascular-like structures was monitored microscopically.

[4] = tested on: VEGF-mediated corneal vascularization; assay: VEGF-mediated ocular vascularization model, topical DOI; type: in vivo, rabbit; details: eyes treated with DOI
Protocol: A rabbit corneal micropocket assay is used to assess the ability of topically administered DOI to prevent VEGF-mediated corneal vascularization. VEGF or saline control slow release micropellets are generated as described previously. A corneal micropocket is created in each rabbit eye 3.0 mm from the corneal limbus, and micropellets are implanted. Starting the day after implant, paired OD and OS eyes are treated four times daily with either control (OD eyes) or DOI (OS eyes) drops, respectively. The utilization of sister eyes for topical drug evaluation controls for animal-to-animal variability. Eyes are clinically assessed daily and imaged by slit lamp biomicroscopy as described in all other ocular studies herein.
VEGF-induced vascularization and vessel permeability can lead to corneal edema, inflammation, and ocular clouding. Therefore, a panel of clinical parameters (described herein) is assessed daily by fluorescent slit-lamp biomicroscopy to ascertain the therapeutic effects of topical DOI treatment on vascularization-mediated eye disease.
VEGF is a known mediator of vascular permeability and we have observed in this model system that edema and chemosis is common, irrespective of the extent of vascularization induced. […]

aortic rings = assay: Aortic ring assay (VEGF-mediated neovascularization); set-up: species or system mice
Protocol: FIG. 13 is a series of photographs showing VEGF-mediated neovascularization from aortic rings in the presence of R-DOI, TCB2, and 4F4PP.
These aortic rings are implanted into matrigel basement membrane and incubated in endothelial cell growth medium containing vascular endothelial growth factor. Aortic rings are continuously incubated in the presence of 5-HT2A receptor agonists and antagonists at the indicated concentrations and examined by microscopy daily. Extensive sprouting, branching and networking of new blood vessels can be observed in control aortic rings, where multiple images needed to be stitched together in order to capture the extensive blood vessel network formed.

[5] = tested on: cancerous retinoblastoma cells (Y-79); assay: Cytotoxicity by lysis, retinoblastoma cells; type: cell-based; details: varying doses
Protocol: (§1) FIG. 17 is a series of graphs showing the effect of R-DOI dose on cytotoxicity of healthy retinal pigment epithelial cells (APRE) and cancerous retinoblastoma cells (Y-79) at 24 hours (top), 48 hours (middle), and 72 hours (bottom).
(§2) Healthy (APRE) and cancerous (Y-79) retinal cell lines were treated with varying doses of R-DOI and monitored for cytotoxicity by lysis at 24 hour intervals.

[6] = tested on: healthy retinal pigment epithelial cells (APRE); assay: Cytotoxicity by lysis, healthy retinal cells; type: cell-based; details: highest dose tested
Protocol: as §1, §2

[7] = relative to BSS controls and TFT controls, by day 12 post-infection

## COc1cc(CC(C)N)c(OC)cc1I (stereo not drawn) [DOI, 1-(4-Iodo-2,5-dimethoxyphenyl)propan-2-amine]
[1]; compared to BSS control, by day 16 post-infection
  clinical scores (three metrics): even greater improvement in each metric
[1]; relative to BSS controls, by day 12 post-infection, 4 μl/eye 4x daily for 8 days
  clinical scores (slit-lamp biomicroscopy, stromal opacity/inflammation, corneal neovascularization): decreased score in all three metrics
[2]
  animal body weight: retained
[2]; by day 15
  eyes exhibiting complete clinical resolution: 60%
[2]; day 15 post infection
  histopathology of the eye (cornea): normal ocular morphology with an absence of clinical signs of ocular disease
[2]; drops for 7 days post infection, chronic disease assessed up to day 15
  development of all clinically scored parameters: suppressed development of all clinically scored parameters
[2]; herpetic eye disease model
  control of acute and chronic vision-threatening disease compared to TFT: superior at controlling both acute and chronic vision-threatening disease
[2]; [7]
  neovascularization score: decreased
  slit lamp score: decreased
  stroma capacity score: decreased
HSV-1; day 1 post-explant
  ganglia positive for infectious HSV-1 (number/total): 0/7
  percentage positive for infectious HSV-1: (0%)
HSV-1; day 2 post-explant
  ganglia positive for infectious HSV-1 (number/total): 0/7
  percentage positive for infectious HSV-1: (0%)
HSV-1; day 3 post-explant
  ganglia positive for infectious HSV-1 (number/total): 0/7
  percentage positive for infectious HSV-1: (0%)
HSV-1; day 4 post-explant
  ganglia positive for infectious HSV-1 (number/total): 0/7
  percentage positive for infectious HSV-1: (0%)
HSV-1; day 5 post-explant
  ganglia positive for infectious HSV-1 (number/total): 0/7
  percentage positive for infectious HSV-1: (0%)
HSV-1; day 6 post-explant
  ganglia positive for infectious HSV-1 (number/total): 0/7
  percentage positive for infectious HSV-1: (0%)
HSV-1; day 7 post-explant
  ganglia positive for infectious HSV-1 (number/total): 0/7
  percentage positive for infectious HSV-1: (0%)
HSV-1; day 8 post-explant
  ganglia positive for infectious HSV-1 (number/total): 1/7
  percentage positive for infectious HSV-1: (14.3%)
HSV-1; day 9 post-explant
  ganglia positive for infectious HSV-1 (number/total): 1/7
  percentage positive for infectious HSV-1: (14.3%)
HSV-1; day 10 post-explant
  ganglia positive for infectious HSV-1 (number/total): 2/7
  percentage positive for infectious HSV-1: (28.6%)
HSV-1; relative to mock
  delay in reactivation of HSV-1 from TGs: 2 fold
HSV-1; relative to mock treated neurons
  degree of reactivation and amount of infectious virus shed from latent neurons (PFU/ml/TG; PFU/ml/positive TG): significantly inhibited the degree of reactivation and amount of infectious virus shed from latent neurons
HSV-1
  HSV-1 reactivation from latency (in words): maintains latency of HSV-1 within reactivation induced neurons
[3]
  vascular-like tubular growth from HMEC spheroids: abrogated formation of vascular-like tubular growth
[4]
  clinical presentation of edema and chemosis: greatly reduced
  vascularization of the eye: resolution of vascularization

## COc1cc(C[C@@H](C)N)c(OC)cc1I [R-DOI, R-2,5-Dimethoxy-4-iodoamphetamine]
[2]
  HSV-induced pathological vascularization of the eye: suppressed HSV-induced pathological vascularization of the eye
[2]; listed as (R)-DOI
  HSV-induced pathological vascularization of the eye: demonstrated anti-vascularization properties
Aortic rings; 10 nM concentration
  inhibitory effects for neovascularization, sprouting, branching, and networking: began to no longer be as effective
Aortic rings; VEGF-containing endothelial growth medium, matrigel
  blood vessel sprouting, branching and formation: inhibited blood vessel sprouting, branching and formation
HSV-1
  HSV-1 reactivation from latency (in words): inhibits HSV-1 reactivation from latent neurons
HSV-1; listed as (R)-DOI
  HSV-1 reactivation from latency (in words): inhibited HSV-1 reactivation from latency
[5]; Y-79, 24 hours
  cytotoxicity by lysis: strong, dose-dependent toxicity
[5]; Y-79, 48 hours
  cytotoxicity by lysis: killing effect was saturated at all doses
[6]
  cytotoxicity by lysis: modest cytotoxicity

## NCCc1c[nH]c2ccc(O)cc12 [Serotonin, 5 hydroxytryptamine, reference compound]
[3]
  vascular-like tubular growth from HMEC spheroids: induced vascularization-like replication and tubule growth

## O=c1[nH]c(=O)n([C@H]2C[C@H](O)[C@@H](CO)O2)cc1C(F)(F)F [TFT, trifluorothymidine, reference compound]
[2]; 1% TFT
  HSV replication: complete inhibition of HSV replication
[2]
  animal body weight: did not change body weight relative to BSS controls
